Experimental findings from US10161932B2, “Azetidine-substituted fluorescent compounds” (HOWARD HUGHES MEDICAL INSTITUTE, priority 2014, dated 2018) are described below.

Counter-ions that a name gives are not always drawn. Like-named read-outs stand apart in the source and are kept apart here.

Data set [1] in a line: Absorption and fluorescence spectroscopy of dyes. Format: physicochemical. The note with it: for ε / λem / λmax: 10 mM HEPES pH 7.3; for ε (extinction coefficient): aqueous buffer. Here is the method:
Phosphate buffered saline (PBS) was at pH 7.4 unless otherwise noted.
Spectroscopy was performed using 1-cm path length, 3.5-mL quartz cuvettes from Starna Cells or 1-cm path length, 1.0-mL quartz microcuvettes from Hellma. All measurements were taken at ambient temperature (22±2° C.) in 10 mM HEPES, pH 7.3 buffer unless otherwise noted. Absorption spectra were recorded on a Cary Model 100 spectrometer (Varian); reported values for extinction coefficients (ε) are averages (n=3). Fluorescence spectra were recorded on a Cary Eclipse fluorometer (Varian). Normalized spectra are shown for clarity.

Data set [2] is described as follows: Quantum yield measurement (Quantaurus-QY spectrometer). Format: physicochemical. Particulars: for increase in quantum yield / brightness relative to parent N,N-dialkyl dye: azetidine-substituted vs parent fluorophore.
Protocol: All reported quantum yield values were measured in under identical conditions using a Quantaurus-QY spectrometer (C11374, Hamamatsu). Measurements were carried out using dilute samples (A<0.1) and self-absorption corrections were performed using the instrument software. Reported values are averages (n=3).
A short description of data set [3]: Fluorescence lifetime measurement. Particulars: for τ: Table 2, 10 mM HEPES pH 7.3 per table footnote.
Protocol: For fluorescence lifetime measurements, a pulse picker (Model 350-160, ConOptics) was placed in the laser beam to reduce the pulse frequency from 80 MHz to 20 MHz. Samples (2 μM dye diluted in 50 mM HEPES, pH 7.2, H2O, or CH3OH) were excited at 830 nm laser wavelength and 6 mW laser power. The emitted light was collected by the fast-timing APD and fed to the single-photon counting board (TimeHarp200; PicoQuant). Timing pulses were obtained from a PIN diode (DET01CFC; ThorLabs) monitoring the 20 MHz pulse train. The temporal impulse response of the system was determined by second harmonic generation of laser pulses using a thin nonlinear crystal in place of a dye sample. The lifetime decay data was fit to a single exponential decay function using a custom MATLAB program.

Consider `O=C([O-])c1ccccc1-c1c2ccc(=[N+]3CCC3)cc-2oc2cc(N3CCC3)ccc12` [Example 7, 2-(3,6-Di(azetidin-1-yl)xanthylium-9-yl)benzoate], for which, in data set [1] (Table 1), the ε is on record as 101,000 M^−1 cm^−1, the λem is on record as 571 nm and the λmax was 549 nm. Also, in data set [1] (Table 2), the ε is on record as 101,000 M^−1 cm^−1, the λem is 571 nm and the λmax stood at 549 nm. Also, the “higher extinction coefficient than the other dyes” value in data set [1] (rhodamines of Table 2) is roughly 30%. The compound also displayed a ϕ in data set [2] (Table 1, 10 mM HEPES pH 7.3) of 0.88. The ϕ in data set [2] (Table 2, 10 mM HEPES pH 7.3) amounted to 0.88. The “ϕ (quantum yield)” value in data set [2] (aqueous buffer) is 0.88. The “brighter than the pyrrolidine derivative” value in data set [2] (one-photon excitation) was 60%. In addition, in data set [3], the “τ (fluorescence lifetime)” value is 3.8 ns and the τ was found to be 3.84 ns.

On to `O=C(O)c1ccccc1-c1c2ccc(=O)cc-2oc2cc(N3CCC3)ccc12` [Example 59, 2-(6-(Azetidin-1-yl)-3-oxo-3H-xanthen-9-yl)benzoic acid], for which, in data set [1] (Table 3), the ε is 59,000 M^−1 cm^−1, the λem turned out to be 546 nm and the λmax is recorded as 519 nm. The ϕ in data set [2] (Table 3, 10 mM HEPES pH 7.3) is given as 0.85. Besides, in data set [2] (aqueous buffer), the “ϕ (quantum yield)” value amounted to 0.85. In data set [2], the “increase in quantum yield / brightness relative to parent N,N-dialkyl dye” value is 4 fold.

For the compound `c1cc2cc3ccc(N4CCC4)cc3nc2cc1N1CCC1` [Example 60, 3,6-Di(azetidin-1-yl)acridine], in data set [1] (Table 3), the ε was 47,000 M^−1 cm^−1, the λem was 531 nm and the λmax is listed as 492 nm. Also, the ϕ in data set [2] (Table 3, 10 mM HEPES pH 7.3) was determined as 0.52. The “ϕ (quantum yield)” value in data set [2] (aqueous buffer) is given as 0.52. For the same compound, the “increase in quantum yield / brightness relative to parent N,N-dialkyl dye” value in data set [2] was found to be 2.5 fold.

For the compound `c1cc2nc3ccc(=[N+]4CCC4)cc-3oc2cc1N1CCC1` [Example 61, 3,7-Di(azetidin-1-yl)phenoxazin-5-ium trifluoroacetate], in data set [1] (Table 3), the ε is 99,000 M^−1 cm^−1, the λem came out at 661 nm and the λmax was 647 nm. Besides, the “ε (extinction coefficient)” value in data set [1] was 99000 M⁻¹ cm⁻¹. This compound also yielded a ϕ in data set [2] (Table 3, 10 mM HEPES pH 7.3) of 0.24. Moreover, the “ϕ (quantum yield)” value in data set [2] (aqueous buffer) was 0.24. The “increase in quantum yield / brightness relative to parent N,N-dialkyl dye” value in data set [2] was 3.4 fold.

Take `CCN(CC)c1ccc2nc3ccc(=[N+](CC)CC)cc-3oc2c1.[O-][Cl+3]([O-])([O-])[O-]` [Oxazine 1, reference compound]: in data set [1] (Table 3), the ε is given as 111,000 M^−1 cm^−1, the λem amounted to 669 nm and the λmax is on record as 655 nm. In data set [1], the “ε (extinction coefficient)” value came out at 111000 M⁻¹ cm⁻¹. The compound also had a ϕ in data set [2] (Table 3, 10 mM HEPES pH 7.3) of 0.07. In addition, the “ϕ (quantum yield)” value in data set [2] (aqueous buffer) came out at 0.07.

For the compound `CN(C)c1ccc2c(-c3ccccc3C(=O)[O-])c3ccc(N(C)C)cc3[o+]c2c1` [TMR, tetramethylrhodamine, reference compound], in data set [1] (Table 2), the ε was 78,000 M^−1 cm^−1, the λem came out at 572 nm and the λmax came out at 548 nm. For the same compound, the “ε (extinction coefficient)” value in data set [1] was determined as 78000 M⁻¹ cm⁻¹. Also, the “ϕ (quantum yield)” value in data set [2] (aqueous buffer) came out at 0.41. Besides, the ϕ in data set [2] (pH 7.3) was 0.41. Moreover, in data set [3], the “τ (fluorescence lifetime)” value is 2.2 ns and the τ is on record as 2.21 ns.

For `CN(C)c1ccc2c(c1)Oc1cc(O)ccc1C21OC(=O)c2ccccc21` (stereo not shown) [dimethyl rhodol, reference compound], in data set [1] (Table 3), the ε was 60,000 M^−1 cm^−1, the λem is 546 nm and the λmax worked out at 518 nm. In data set [1], the “ε (extinction coefficient)” value turned out to be 60000 M⁻¹ cm⁻¹. In addition, the “ϕ (quantum yield)” value in data set [2] is recorded as 0.21. In data set [2] (pH 7.3), this compound registered a ϕ of 0.21.

For `O=C1OC2(c3ccc(N4CCCCC4)cc3Oc3cc(N4CCCCC4)ccc32)c2ccccc21` [piperidine derivative, reference compound], in data set [1] (Table 2), the ε is listed as 80,000 M^−1 cm^−1, the λem was found to be 586 nm and the λmax was 560 nm. In addition, in data set [2], the “ϕ (quantum yield)” value was found to be 0.10. The compound also showed a ϕ in data set [2] (pH 7.3) of 0.10. In addition, in data set [3], the “τ (fluorescence lifetime)” value was 0.6 ns and the τ was determined as 0.59 ns.

Take `Cl.N=c1ccc2c(-c3ccccc3C(=O)O)c3ccc(N)cc3oc-2c1` [rhodamine 110, reference compound]: in data set [1] (Table 2), the ε is 76,000 M^−1 cm^−1, the λem is 520 nm and the λmax is on record as 497 nm. The “ε (extinction coefficient)” value in data set [1] was 76000 M⁻¹ cm⁻¹. In addition, in data set [2] (Table 2, 10 mM HEPES pH 7.3), the ϕ is 0.88. Further, the “ϕ (quantum yield)” value in data set [2] (aqueous buffer) is given as 0.88. In data set [3], the “τ (fluorescence lifetime)” value stood at 3.3 ns and the τ is on record as 3.26 ns.
